Measured values as given in paper PMC5290327, “SC83288 is a clinical development candidate for the treatment of severe malaria” (Nature Communications, 2017).

Tests used:
Assay in all cases: KINOMEscan
Format in all cases: binding
Conditions in all cases: read-out: Remaining enzyme activity
[1] = target: T1, FLT4 (Homo sapiens, UniProt P35916)
T1 construct: purchased Ambit (DiscoverX) KINOMEscan; Cerep
Description: (§1) The KINOMEscan was carried out by Ambit (San Diego, USA) according to a previously established protocol. The experiment was based on a competition binding assay that quantitatively measures the ability of a compound to compete with an immobilized, active-site directed ligand. The assay is performed by combining three components: DNA-tagged kinase; immobilized ligand; and a test compound. The ability of the test compound to compete with the immobilized ligand is measured via quantitative PCR of the DNA tag.
(§2) For most assays, kinase-tagged T7 phage strains were grown in parallel in 24-well blocks in an Escherichia coli host derived from the BL21 strain. E. coli were grown to log-phase and infected with T7 phage from a frozen stock and incubated with shaking at 32 °C until lysis (90–150 min). The lysates were centrifuged (6,000g) and filtered (0.2 μm) to remove cell debris. The remaining kinases were produced in HEK-293 cells (Sigma Aldrich, catalogue number: 85120602) and subsequently tagged with DNA for quantitative PCR detection. […] The liganded beads were blocked with excess biotin and washed with blocking buffer (SeaBlock (Pierce), 1% bovine serum albumin, 0.05% Tween 20 and 1 mM dithiothreitol) to remove unbound ligand and to reduce non-specific phage binding. […] SC81458 was prepared as 40x stock in 100% DMSO and directly diluted into the assay to a final concentration of 10 μM. All reactions were performed in polypropylene 384-well plates in a final volume of 0.04 ml. […] The kinase concentration in the eluates was measured by quantitative PCR.

[2] = target: T2, MYLK (Homo sapiens, UniProt Q15746)
T2 construct: purchased Ambit (DiscoverX) KINOMEscan; Cerep
Description: as §1, §2

[3] = target: T3, FGFR1 (Homo sapiens, UniProt P11362)
T3 construct: purchased Ambit (DiscoverX) KINOMEscan; Cerep
Description: as §1, §2

[4] = target: T4, PLK4 (Homo sapiens, UniProt O00444)
T4 construct: purchased Ambit (DiscoverX) KINOMEscan; Cerep
Description: as §1, §2

[5] = target: T5, SRMS (Homo sapiens, UniProt Q9H3Y6)
T5 construct: purchased Ambit (DiscoverX) KINOMEscan; Cerep
T5 sequence (Q9H3Y6 whole entry): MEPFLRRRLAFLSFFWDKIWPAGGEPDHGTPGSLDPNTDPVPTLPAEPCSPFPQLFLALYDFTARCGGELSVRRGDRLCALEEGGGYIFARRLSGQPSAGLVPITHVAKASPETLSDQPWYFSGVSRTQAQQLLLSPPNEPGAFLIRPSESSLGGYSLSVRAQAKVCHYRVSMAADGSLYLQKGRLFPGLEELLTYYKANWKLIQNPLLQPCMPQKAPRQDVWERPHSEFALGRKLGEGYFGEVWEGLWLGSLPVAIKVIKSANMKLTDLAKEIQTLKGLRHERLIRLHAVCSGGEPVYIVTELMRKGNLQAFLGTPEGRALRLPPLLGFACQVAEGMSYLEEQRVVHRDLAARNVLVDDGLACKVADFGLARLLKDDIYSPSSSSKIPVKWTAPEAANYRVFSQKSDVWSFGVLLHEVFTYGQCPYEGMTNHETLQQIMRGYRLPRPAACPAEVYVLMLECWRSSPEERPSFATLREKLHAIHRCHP
Description: as §1, §2

[6] = target: T6, AAK1 (Homo sapiens, UniProt Q2M2I8)
T6 construct: purchased Ambit (DiscoverX) KINOMEscan; Cerep
Description: as §1, §2

[7] = target: T7, EPHA7 (Homo sapiens, UniProt Q15375)
T7 construct: purchased Ambit (DiscoverX) KINOMEscan; Cerep
Description: as §1, §2

[8] = target: T8, SYK (Homo sapiens, UniProt P43405)
T8 construct: purchased Ambit (DiscoverX) KINOMEscan; Cerep
Description: as §1, §2

[9] = target: T9, ULK2 (Homo sapiens, UniProt Q8IYT8)
T9 construct: purchased Ambit (DiscoverX) KINOMEscan; Cerep
Description: as §1, §2

[10] = target: T10, NEK9 (Homo sapiens, UniProt Q8TD19)
T10 construct: purchased Ambit (DiscoverX) KINOMEscan; Cerep
Description: as §1, §2

[11] = target: T11, PRKCH (Homo sapiens, UniProt P24723)
T11 construct: purchased Ambit (DiscoverX) KINOMEscan; Cerep
Description: as §1, §2

[12] = target: T12, TAOK3 (Homo sapiens, UniProt Q9H2K8)
T12 construct: purchased Ambit (DiscoverX) KINOMEscan; Cerep
Description: as §1, §2

[13] = target: T13, EPHA4 (Homo sapiens, UniProt P54764)
T13 construct: purchased Ambit (DiscoverX) KINOMEscan; Cerep
Description: as §1, §2

[14] = target: T14, ITK (Homo sapiens, UniProt Q08881)
T14 construct: purchased Ambit (DiscoverX) KINOMEscan; Cerep
T14 sequence (Q08881 whole entry): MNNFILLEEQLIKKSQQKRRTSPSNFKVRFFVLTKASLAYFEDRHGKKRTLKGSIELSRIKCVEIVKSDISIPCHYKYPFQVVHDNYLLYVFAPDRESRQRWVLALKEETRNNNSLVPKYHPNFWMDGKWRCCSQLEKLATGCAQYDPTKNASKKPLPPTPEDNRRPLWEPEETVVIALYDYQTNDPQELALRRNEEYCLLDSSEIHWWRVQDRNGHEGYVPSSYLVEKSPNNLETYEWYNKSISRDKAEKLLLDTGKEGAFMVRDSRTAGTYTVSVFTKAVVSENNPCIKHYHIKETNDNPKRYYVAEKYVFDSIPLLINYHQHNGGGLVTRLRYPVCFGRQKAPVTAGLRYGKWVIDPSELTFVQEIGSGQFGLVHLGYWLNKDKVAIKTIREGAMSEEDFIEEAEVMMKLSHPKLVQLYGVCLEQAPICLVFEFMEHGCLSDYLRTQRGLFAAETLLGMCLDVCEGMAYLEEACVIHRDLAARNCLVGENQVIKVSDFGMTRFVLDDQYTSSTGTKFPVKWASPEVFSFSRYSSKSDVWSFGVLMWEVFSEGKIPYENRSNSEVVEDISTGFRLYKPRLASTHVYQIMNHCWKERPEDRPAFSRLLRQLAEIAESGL
Description: as §1, §2

[15] = target: T15, ABL1 (Homo sapiens, UniProt P00519)
T15 construct: purchased Ambit (DiscoverX) KINOMEscan; Cerep
Description: as §1, §2

[16] = target: T16, PKAC-apha (Homo sapiens, UniProt P17612)
T16 construct: purchased Ambit (DiscoverX) KINOMEscan; Cerep
Description: as §1, §2

[17] = target: T17, YSK4 (Homo sapiens, UniProt Q56UN5)
T17 construct: purchased Ambit (DiscoverX) KINOMEscan; Cerep
T17 sequence (Q56UN5 whole entry): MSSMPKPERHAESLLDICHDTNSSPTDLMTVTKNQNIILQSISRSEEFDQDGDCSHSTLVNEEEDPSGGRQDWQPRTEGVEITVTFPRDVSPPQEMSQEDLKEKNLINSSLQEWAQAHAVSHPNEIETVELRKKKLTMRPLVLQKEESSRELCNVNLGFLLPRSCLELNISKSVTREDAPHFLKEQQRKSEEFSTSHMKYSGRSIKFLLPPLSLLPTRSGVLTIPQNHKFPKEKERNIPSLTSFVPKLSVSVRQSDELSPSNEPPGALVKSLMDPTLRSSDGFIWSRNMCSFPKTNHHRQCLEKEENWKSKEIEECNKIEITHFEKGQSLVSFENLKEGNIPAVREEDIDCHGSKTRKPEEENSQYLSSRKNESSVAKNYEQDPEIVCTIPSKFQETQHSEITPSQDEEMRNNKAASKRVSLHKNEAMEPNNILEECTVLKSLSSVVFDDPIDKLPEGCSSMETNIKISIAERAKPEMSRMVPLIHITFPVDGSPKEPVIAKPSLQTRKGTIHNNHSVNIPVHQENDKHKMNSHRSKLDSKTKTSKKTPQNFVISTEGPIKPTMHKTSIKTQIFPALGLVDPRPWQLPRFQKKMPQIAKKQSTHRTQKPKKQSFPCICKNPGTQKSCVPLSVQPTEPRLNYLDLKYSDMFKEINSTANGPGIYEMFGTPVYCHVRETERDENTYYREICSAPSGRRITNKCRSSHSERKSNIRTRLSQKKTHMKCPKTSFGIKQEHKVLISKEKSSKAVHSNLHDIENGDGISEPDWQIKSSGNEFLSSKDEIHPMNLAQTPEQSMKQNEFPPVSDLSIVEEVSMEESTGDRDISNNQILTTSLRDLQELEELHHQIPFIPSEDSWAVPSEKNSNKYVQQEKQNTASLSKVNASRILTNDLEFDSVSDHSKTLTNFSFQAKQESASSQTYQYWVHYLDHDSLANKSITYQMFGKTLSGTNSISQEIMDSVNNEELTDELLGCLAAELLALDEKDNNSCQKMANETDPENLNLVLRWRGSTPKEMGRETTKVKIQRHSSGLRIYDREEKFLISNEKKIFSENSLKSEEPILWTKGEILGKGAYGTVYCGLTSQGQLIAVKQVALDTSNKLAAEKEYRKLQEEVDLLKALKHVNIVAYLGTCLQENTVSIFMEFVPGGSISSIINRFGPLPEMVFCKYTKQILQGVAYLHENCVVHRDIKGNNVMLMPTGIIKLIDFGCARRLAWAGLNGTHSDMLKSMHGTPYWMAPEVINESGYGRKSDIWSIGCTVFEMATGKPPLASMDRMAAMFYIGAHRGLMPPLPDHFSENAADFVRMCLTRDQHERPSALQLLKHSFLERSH
Description: as §1, §2

[18] = target: T18, STK33 (Homo sapiens, UniProt Q9BYT3)
T18 construct: purchased Ambit (DiscoverX) KINOMEscan; Cerep
Description: as §1, §2

[19] = target: T19, MKNK1 (Homo sapiens, UniProt Q9BUB5)
T19 construct: purchased Ambit (DiscoverX) KINOMEscan; Cerep
Description: as §1, §2

[20] = target: T20, EPHA2 (Homo sapiens, UniProt P29317)
T20 construct: purchased Ambit (DiscoverX) KINOMEscan; Cerep
Description: as §1, §2

[21] = target: T21, MAP4K3 (Homo sapiens, UniProt Q8IVH8)
T21 construct: purchased Ambit (DiscoverX) KINOMEscan; Cerep
Description: as §1, §2

[22] = target: T22, TBK1 (Homo sapiens, UniProt Q9UHD2)
T22 construct: purchased Ambit (DiscoverX) KINOMEscan; Cerep
Description: as §1, §2

[23] = target: T23, HIPK3 (Homo sapiens, UniProt Q9H422)
T23 construct: purchased Ambit (DiscoverX) KINOMEscan; Cerep
T23 sequence (Q9H422 whole entry): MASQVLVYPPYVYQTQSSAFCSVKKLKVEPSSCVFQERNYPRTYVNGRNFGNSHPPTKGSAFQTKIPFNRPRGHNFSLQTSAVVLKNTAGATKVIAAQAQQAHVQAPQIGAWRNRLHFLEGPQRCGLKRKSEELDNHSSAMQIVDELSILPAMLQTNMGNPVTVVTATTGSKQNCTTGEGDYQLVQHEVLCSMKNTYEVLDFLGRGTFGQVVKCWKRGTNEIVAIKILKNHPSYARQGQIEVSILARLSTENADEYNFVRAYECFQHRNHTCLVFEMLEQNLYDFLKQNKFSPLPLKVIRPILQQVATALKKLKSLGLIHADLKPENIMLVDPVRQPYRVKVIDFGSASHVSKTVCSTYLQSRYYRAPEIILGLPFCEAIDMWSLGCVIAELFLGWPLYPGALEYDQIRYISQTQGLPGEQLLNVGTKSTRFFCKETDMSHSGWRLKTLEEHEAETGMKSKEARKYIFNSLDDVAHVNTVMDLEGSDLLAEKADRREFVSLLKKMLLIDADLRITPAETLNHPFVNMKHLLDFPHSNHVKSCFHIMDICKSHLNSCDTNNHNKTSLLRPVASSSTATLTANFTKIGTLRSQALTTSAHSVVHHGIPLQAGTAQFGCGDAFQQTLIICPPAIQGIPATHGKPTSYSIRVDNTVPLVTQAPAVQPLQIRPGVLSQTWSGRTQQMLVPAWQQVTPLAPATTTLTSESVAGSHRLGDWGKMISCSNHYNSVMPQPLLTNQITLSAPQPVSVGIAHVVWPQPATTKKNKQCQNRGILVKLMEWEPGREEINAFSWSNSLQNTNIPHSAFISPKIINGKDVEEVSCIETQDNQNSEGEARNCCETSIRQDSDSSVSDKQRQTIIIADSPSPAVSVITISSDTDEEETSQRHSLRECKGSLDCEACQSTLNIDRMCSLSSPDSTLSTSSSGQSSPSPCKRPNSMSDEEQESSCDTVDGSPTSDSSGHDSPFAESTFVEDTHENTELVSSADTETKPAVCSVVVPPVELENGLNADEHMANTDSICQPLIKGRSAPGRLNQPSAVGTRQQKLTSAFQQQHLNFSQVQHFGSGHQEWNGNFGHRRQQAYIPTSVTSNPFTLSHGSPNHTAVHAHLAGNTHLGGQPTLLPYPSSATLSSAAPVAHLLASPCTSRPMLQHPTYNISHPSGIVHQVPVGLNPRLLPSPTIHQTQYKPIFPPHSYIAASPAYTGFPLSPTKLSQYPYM
Description: as §1, §2

[24] = target: T24, GRK1 (Homo sapiens, UniProt Q15835)
T24 construct: purchased Ambit (DiscoverX) KINOMEscan; Cerep
Description: as §1, §2

[25] = target: T25, MAST1 (Homo sapiens, UniProt Q9Y2H9)
T25 construct: purchased Ambit (DiscoverX) KINOMEscan; Cerep
Description: as §1, §2

[26] = target: T26, CAMK2b (Homo sapiens, UniProt Q13554)
T26 construct: purchased Ambit (DiscoverX) KINOMEscan; Cerep
Description: as §1, §2

[27] = target: T27, PAK4 (Homo sapiens, UniProt O96013)
T27 construct: purchased Ambit (DiscoverX) KINOMEscan; Cerep
Description: as §1, §2

[28] = target: T28, LIMK1 (Homo sapiens, UniProt P53667)
T28 construct: purchased Ambit (DiscoverX) KINOMEscan; Cerep
Description: as §1, §2

[29] = target: T29, CDK5 (Homo sapiens, UniProt Q00535)
T29 construct: purchased Ambit (DiscoverX) KINOMEscan; Cerep
Description: as §1, §2

[30] = target: T30, SRPK1 (Homo sapiens, UniProt Q96SB4)
T30 construct: purchased Ambit (DiscoverX) KINOMEscan; Cerep
T30 sequence (Q96SB4 whole entry): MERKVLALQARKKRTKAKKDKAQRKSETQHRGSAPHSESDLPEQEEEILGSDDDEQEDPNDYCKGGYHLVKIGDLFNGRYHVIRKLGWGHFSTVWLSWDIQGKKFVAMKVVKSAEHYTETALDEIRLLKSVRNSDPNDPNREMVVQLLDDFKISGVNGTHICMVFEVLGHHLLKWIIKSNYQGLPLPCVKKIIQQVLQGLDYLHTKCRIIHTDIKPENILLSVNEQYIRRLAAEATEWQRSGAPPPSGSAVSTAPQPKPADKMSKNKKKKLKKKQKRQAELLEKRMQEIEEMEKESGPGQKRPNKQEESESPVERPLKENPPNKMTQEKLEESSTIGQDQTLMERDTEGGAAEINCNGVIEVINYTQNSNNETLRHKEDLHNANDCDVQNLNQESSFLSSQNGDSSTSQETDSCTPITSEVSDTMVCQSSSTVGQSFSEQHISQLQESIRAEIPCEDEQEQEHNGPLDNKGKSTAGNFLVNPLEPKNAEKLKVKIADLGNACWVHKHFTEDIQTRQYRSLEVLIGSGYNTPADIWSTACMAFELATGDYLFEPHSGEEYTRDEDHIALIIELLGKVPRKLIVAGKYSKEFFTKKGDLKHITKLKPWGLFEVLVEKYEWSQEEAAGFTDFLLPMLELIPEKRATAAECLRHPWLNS
Description: as §1, §2

[31] = target: T31, GSK3a (Homo sapiens, UniProt P49840)
T31 construct: purchased Ambit (DiscoverX) KINOMEscan; Cerep
Description: as §1, §2

[32] = target: T32, MLK2 (Homo sapiens, UniProt Q02779)
T32 construct: purchased Ambit (DiscoverX) KINOMEscan; Cerep
Description: as §1, §2

[33] = target: T33, PAK1 (Homo sapiens, UniProt Q13153)
T33 construct: purchased Ambit (DiscoverX) KINOMEscan; Cerep
T33 sequence (Q13153 whole entry): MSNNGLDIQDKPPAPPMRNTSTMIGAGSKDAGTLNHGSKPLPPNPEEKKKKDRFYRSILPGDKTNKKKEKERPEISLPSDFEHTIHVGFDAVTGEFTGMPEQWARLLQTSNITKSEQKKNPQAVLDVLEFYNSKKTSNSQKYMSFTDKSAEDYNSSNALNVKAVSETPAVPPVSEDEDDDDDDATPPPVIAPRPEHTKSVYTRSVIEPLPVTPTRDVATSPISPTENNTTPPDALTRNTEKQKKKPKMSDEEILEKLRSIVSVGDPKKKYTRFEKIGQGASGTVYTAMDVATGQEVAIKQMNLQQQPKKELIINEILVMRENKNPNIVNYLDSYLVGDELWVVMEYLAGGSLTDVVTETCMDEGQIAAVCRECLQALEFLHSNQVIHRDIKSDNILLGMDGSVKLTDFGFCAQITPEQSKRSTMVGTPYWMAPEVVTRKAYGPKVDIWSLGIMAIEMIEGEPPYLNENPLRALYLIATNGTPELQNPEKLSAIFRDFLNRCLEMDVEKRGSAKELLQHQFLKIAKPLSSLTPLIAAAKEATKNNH
Description: as §1, §2

[34] = target: T34, MYO3b (Homo sapiens, UniProt Q8WXR4)
T34 construct: purchased Ambit (DiscoverX) KINOMEscan; Cerep
Description: as §1, §2

[35] = target: T35, KIT(V559D, T670I) (Homo sapiens, UniProt P10721, T670I/V559D)
T35 construct: purchased Ambit (DiscoverX) KINOMEscan; Cerep
Description: as §1, §2

What does the source list for `CCCCN1CCN(C(=N)c2cccc(NC(=O)Nc3ccc(S(=O)(=O)NCc4ccc(S(N)(=O)=O)cc4)cc3)c2)CC1` [SC81458, 4-(3-(3-((4-butylpiperazin-1-yl)(imino)methyl)phenyl)ureido)-N-(4-sulfamoylbenzyl) benzenesulfonamide]?
remaining binding at 10 µM [1]: 100%; remaining binding at 10 µM [2]: 95%; remaining binding at 10 µM [3]: 100%; remaining binding at 10 µM [4]: 93%; remaining binding at 10 µM [5]: 79%; remaining binding at 10 µM [6]: 100%; remaining binding at 10 µM [7]: 81%; remaining binding at 10 µM [8]: 100%; remaining binding at 10 µM [9]: 100%; remaining binding at 10 µM [10]: 100%; remaining binding at 10 µM [11]: 92%; remaining binding at 10 µM [12]: 100%; remaining binding at 10 µM [13]: 98%; remaining binding at 10 µM [14]: 86%; remaining binding at 10 µM [15]: 100%; remaining binding at 10 µM [16]: 75%; remaining binding at 10 µM [17]: 100%; remaining binding at 10 µM [18]: 100%; remaining binding at 10 µM [19]: 71%; remaining binding at 10 µM [20]: 99%; remaining binding at 10 µM [21]: 95%; remaining binding at 10 µM [22]: 100%; remaining binding at 10 µM [23]: 99%; remaining binding at 10 µM [24]: 100%; remaining binding at 10 µM [25]: 46%; remaining binding at 10 µM [26]: 100%; remaining binding at 10 µM [27]: 100%; remaining binding at 10 µM [28]: 76%; remaining binding at 10 µM [29]: 100%; remaining binding at 10 µM [30]: 100%; remaining binding at 10 µM [31]: 100%; remaining binding at 10 µM [32]: 100%; remaining binding at 10 µM [33]: 100%; remaining binding at 10 µM [34]: 100%; remaining binding at 10 µM [35]: 85%
